Reference: patent publication US9232796B2, “Herbicidal compositions comprising 4-amino-3-chloro-5-fluoro-6-(4-chloro-2-fluoro-3-methoxyphenyl) pyridine-2-carboxylic acid or a derivative thereof and acetyl-CoA carboxylase (ACCase) inhibitors” (DOW AGROSCIENCES LLC, priority 2012, dated 2016)
Where “and” joins values, the source holds several entries; their conditions need not be identical. Equal entries are not always repeated.

Assays:
Experiment in all cases: Example V (second) postemergence foliar-applied ternary mixtures, greenhouse, direct seeded rice weeds
[1] = test system: CYPES; assay type: in vivo, Cyperus esculentus L.
Experimental: (§1) The treated plants and control plants were placed in a greenhouse as described above and watered by sub-irrigation to prevent wash-off of the test compounds. After approximately 3 weeks, the condition of the test plants as compared with that of the untreated plants was determined visually and scored on a scale of 0 to 100 percent where 0 corresponds to no injury or growth inhibition and 100 corresponds to complete kill.
(§2) Colby's equation was used to determine the herbicidal effects expected from the mixtures (Colby, S. R. 1967. Calculation of the synergistic and antagonistic response of herbicide combinations. Weeds 15:20-22.).
(§3) The following equation was used to calculate the expected activity of mixtures containing three active ingredients, A, B, and C: Expected=A+B+C−((A×B+A×C+B×C)/100)+(A×B×C/10000)

[2] = test system: ECHCO; assay type: in vivo, Echinochloa colona (L.) Link
Experimental: as §1, §2, §3

[3] = test system: ECHCG; assay type: in vivo, Echinochloa crus-galli (L.) Beauv.
How it was run: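 Compound A (SC, acid equivalent), an ACCase inhibitor and a third herbicide were sprayed alone and as ternary mixtures postemergence at 187 L/ha with 1.25% v/v crop oil concentrate on greenhouse plants at the 1st–4th true leaf stage (29/26 °C day/night, ~14 h photoperiod). Injury was scored visually at ~3 weeks (0–100%) against untreated plants, and Colby's equation gave the expected mixture effects.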

## COc1c(Cl)ccc(-c2nc(C(=O)OCc3ccccc3)c(Cl)c(N)c2F)c1F [Compound A Benzyl Ester, benzyl ester of 4-amino-3-chloro-5-fluoro-6-(4-chloro-2-fluoro-3-methoxy-phenyl)pyridine-2-carboxylic acid]
[1]; 8 ae/ha
  Visual Weed Control (%) - 21 DAA CYPES Obs: 70%
[1]; 8 gae/ha
  Visual Weed Control (%) - 21 DAA CYPES Obs: 70%
[2]; 2.19 gae/ha
  Visual Weed Control (%) - 21 DAA ECHCO Obs: 10%
[2]; 4.38 gae/ha
  Visual Weed Control (%) - 21 DAA ECHCO Obs: 25%
[2]; 8 gae/ha
  Visual Weed Control (%) - 21 DAA ECHCO Obs: 45%
[3]; 2.19 gae/ha
  Visual Weed Control (%) - 21 DAA ECHCG Obs: 5%
[3]; 4.38 gae/ha
  Visual Weed Control (%) - 21 DAA ECHCG Obs: 27%
[3]; 8 gae/ha
  Visual Weed Control (%) - 21 DAA ECHCG Obs: 38% and 45%
  Visual Weed Control (%) - 22 DAA ECHCG Obs: 40%
[3]; 16 gae/ha
  Visual Weed Control (%) - 22 DAA ECHCG Obs: 58%

## CCCCOC(=O)[C@@H](C)Oc1ccc(Oc2ccc(C#N)cc2F)cc1 [Cyhalofop-butyl, butyl(2R)-2-[4-(4-cyano-2-fluorophenoxy)phenoxy]propanoate, reference compound]
[1]; 35 gai/ha
  Visual Weed Control (%) - 21 DAA CYPES Obs: 0%
[2]; 35 gai/ha
  Visual Weed Control (%) - 21 DAA ECHCO Obs: 37% and 40%
[3]; 17.5 gai/ha
  Visual Weed Control (%) - 21 DAA ECHCG Obs: 33%
  Visual Weed Control (%) - 22 DAA ECHCG Obs: 0%
[3]; 35 gai/ha
  Visual Weed Control (%) - 21 DAA ECHCG Obs: 20%
  Visual Weed Control (%) - 22 DAA ECHCG Obs: 12%
